Measurements: patent US7812032B2 (Abbott Laboratories, priority 2006, dated 2010)

Key:
[1] = pharmacokinetics after single intravenous dose in cynomolgus monkey; format: in vivo; conditions: 2.5 mg/kg intravenous
[2] = test system: neointimal hyperplasia in porcine coronary arteries containing stents; experiment: porcine coronary stent model, A-179578 eluted from BiodivYsio PC coronary stent, 28 days; format: in vivo
Excerpt: The control stents are polymer-coated without drugs. This is important, for the polymer itself must not stimulate neointimal hyperplasia to a substantial degree. As the eluted drug disappears, an inflammatory response to the polymer could conceivably result in a late “catch-up phenomenon” where the restenosis process is not stopped, but instead slowed. This phenomenon would result in restenosis at late dates in human subjects.
Stents were implanted in two blood vessels in each pig. Pigs used in this model were generally 2-4 months old and weighed 30-40 kg. Two coronary stents were thus implanted in each pig by visually assessing a “normal” stent:artery ratio of 1.1-1.2.
Beginning on the day of the procedure, pigs were given oral aspirin (325 mg daily) and continued for the remainder of their course. General anesthesia was achieved by means of intramuscular injection followed by intravenous ketamine (30 mg/kg) and xylazine (3 mg/kg). Additional medication at the time of induction included atropine (1 mg) and flocillin (1 g) administered intramuscularly. During the stenting procedure, an intraarterial bolus of 10,000 units of heparin was administered.
Arterial access was obtained by cutdown on the right external carotid and placement of an 8F sheath. After the procedure, the animals were maintained on a normal diet without cholesterol or other special supplementation.
The BiodivYsio stent was used with nominal vessel target size of 3.0 mm. Two coronary arteries per pig were assigned at random to deployment of the stents. The stent was either a drug eluting stent (polymer plus drug stent) or a stent coated with a polymer only (polymer only stent). The stents were delivered by means of standard guide catheters and wires. The stent balloons were inflated to appropriate sizes for less than 30 seconds.
Each pig had one polymer only stent and one polymer plus drug stent placed in separate coronary arteries, so that each pig would have one stent for drug and one for control. A sample size of 20 pigs total was chosen to detect a projected difference in neointimal thickness of 0.2 mm with a standard deviation of 0.15 mm, at a power of 0.95 and […] 0.02.
Animals were euthanized at 28 days for histopathologic examination and quantification. Following removal of the heart from the perfusion pump system, the left atrial appendage was removed for access to the proximal coronary arteries. Coronary arterial segments with injuries were dissected free of the epicardium. Segments containing lesions were isolated, thereby allowing sufficient tissue to contain uninvolved blood vessel at either end. […]
The severity of vessel injury and the neointimal response were measured by calibrated digital microscopy. […]

[3] = rate of release of A-179578 from 316L stainless steel coupons coated with PC polymer; format: physicochemical; conditions: PC polymer coated 316L coupons, 0.01 M phosphate buffer pH 6.0
Excerpt: Rubber septa from lids from HPLC vials were removed from the vials and placed into glass vials so that the “Teflon” side faced up. These septa served as supports for the test samples. The test samples were 316L stainless steel coupons that had been previously coated with a biocompatible polymer containing phosphorylcholine side groups (PC polymer). Coronary stents are commonly made of 316L stainless steel and can be coated with the PC polymer to provide a depot site for loading drugs. The coated coupons, which serve to simulate stents, were placed onto the septa. By using a glass Hamilton Syringe, a solution of A-179578 and ethanol (10 μl) was applied to the surface of each coupon. The solution contained A-179578 (30.6 mg) dissolved in 100% ethanol (3.0 ml). The syringe was cleaned with ethanol between each application. The cap to the glass vial was placed on the vial loosely, thereby assuring proper ventilation. The coupon was allowed to dry for a minimum of 1.5 hours. Twelve (12) coupons were loaded in this way, six being used to determine the average amount of drug loaded onto the device and six being used to measure the time needed to release the drug from the devices.
The coupon was placed onto a 5210 Branson sonicator for one hour. The coupon was then removed from the solution, and the solution was assayed by HPLC.
The time release studies were performed by immersing and removing the individual coupons from fresh aliquots (10.0 ml) of 0.01 M phosphate buffer at a pH of 6.0 at each of the following time intervals; 5, 15, 30 and 60 minutes. For the remaining time points of 120, 180, 240, 300, 360 minutes, volumes of 5.0 ml of buffer were used. To facilitate mixing during the drug release phase, the samples were placed onto a Eberbach shaker set at low speed. All solution aliquots were assayed by HPLC after the testing of the last sample was completed.
The HPLC analysis was performed with a Hewlett Packard series 1100 instrument having the following settings: Injection Volume is 100 μl; Acquisition Time is 40 minutes; Flow Rate is 1.0 ml/min; Column Temperature is 40 degrees Celsius; Wavelength is 278 nm; Mobile Phase is 65% Acetonitrile/35% H2O; and Column is YMC ODS-A S5 μm, 4.6×250 mm (Part No. A12052546WT).

[4] = test system: in-stent neointima formation in coronary arteries of adult miniature swine; experiment: safety and efficacy of ABT-578 dosages on in-stent neointima formation, BiodivYsio OC stent in swine; format: in vivo, Yucatan miniature swine
Method: The purpose of this example was to evaluate the safety and efficacy of different drug dosages on neointima formation. […] In-stent neointima formation was measured at […] time intervals; 3 days, 1 month, and 3 months in the coronary arteries of adult miniature swine. Forty (40) animals were studied at each time interval (10 animals per dose). Each animal received one drug-coated stent and one control stent. The control stent contained no drug.
Potential local tissue toxicity was assessed at all time intervals by examining histopathologic changes in the stented region, adjacent coronary segments, perivascular tissue, and subserved myocardium. The mortality, angiographic implant and restudy data, histomorphometry data, and stent site histopathology were studied.

[5] = loading and release of ABT-578 from 15 mm BiodivYsio drug delivery stents; format: physicochemical; conditions: 15 mm BiodivYsio stents, 0.01 M phosphate buffer pH 6.0
Method: Twelve individual polymer-coated stents were placed on fixtures designed to hold the stent in a vertical position and the stents were immersed vertically in the drug solution for five minutes. The stents and fixtures were removed from the vials and excess drug solution was blotted away by contacting the stents with an absorbant material. The stents were then allowed to dry in air for 30 minutes in an inverted vertical position.
The stents were removed from the fixtures, and each stent was placed into 50/50 acetonitrile/phosphate buffer (pH 5.1, 2.0 ml) and sonicated for one hour. The stents were removed from the solution and solutions were assayed for concentration of drug, which allowed calculation of the amount of drug originally on the stents. This method was independently shown to remove at least 95% of the drug from the stent coating. On average, the stents contained 60 micrograms of drug ±20 micrograms.
The drug-loaded stents were placed on the fixtures and placed into 0.01 M phosphate buffer (pH=6.0, 1.9 ml) in individual vials. These samples were placed onto an Eberbach shaker set at low speed to provide back-and-forth agitation. To avoid approaching drug saturation in the buffer, the stents were transferred periodically to fresh buffer vials at the following points: 15, 30, 45, 60, 120, 135, 150, 165, 180, 240, 390 minutes. The dissolution buffer vials were assayed by HPLC for the drug concentration at the end of the drug release period studied. The data, represented as % cumulative release of the drug as a function of time, is shown in tabular form below: […]

[6] = test system: human mixed lymphocyte reaction (MLR); experiment: human mixed lymphocyte reaction (MLR) assay; format: cell-based; conditions: Homo sapiens, Lymphocyte; read-out: Human MLR IC50 ± S.E.M.
[7] = porcine coronary artery, 28 days
[8] = one month, dose groups 3 and 4 vs control

SMILES: CO[C@H]1C[C@@H]2CC[C@@H](C)[C@@](O)(O2)C(=O)C(=O)N2CCCC[C@H]2C(=O)O[C@H]([C@H](C)C[C@@H]2CC[C@H](n3ncnn3)[C@H](OC)C2)CC(=O)[C@H](C)/C=C(\C)[C@@H](O)[C@@H](OC)C(=O)[C@H](C)C[C@H](C)/C=C/C=C/C=C/1C [Example 1B, 42-(2-tetrazolyl)-rapamycin]
- terminal elimination half-life (t1/2) compared to rapamycin [1]: substantially shorter

SMILES: COC1CC2CCC(C)C(O)(O2)C(=O)C(=O)N2CCCCC2C(=O)OC(C(C)CC2CCC(n3cnnn3)C(OC)C2)CC(=O)C(C)C=C(C)C(O)C(OC)C(=O)C(C)CC(C)C=CC=CC=C1C (stereo not shown) [Example 1C, 42-(1-tetrazolyl)-rapamycin]
- lumen area vs polymer only stent [2, 7]: greater lumen area
- neointimal area vs polymer only stent [2, 7]: lower neointimal area
- neointimal thickness vs polymer only stent [2, 7]: lower neointimal thickness
- neointimal hyperplasia ([2]; stent with polymer placed in porcine coronary artery): reduction in neointimal hyperplasia
- Percent Release ([3]; 0.00 min): 0.00
- Percent Release ([3]; 5.00 min): 1.87
- Percent Release ([3]; 15.00 min): 2.97
- Percent Release ([3]; 30.00 min): 3.24
- Percent Release ([3]; 60.00 min): 3.29
- Percent Release ([3]; 180.00 min): 4.36
- Percent Release ([3]; 240.00 min): 4.37
- Percent Release ([3]; 300.00 min): 6.34
- Percent Release ([3]; 360.00 min): 7.88

SMILES: CO[C@H]1C[C@@H]2CC[C@@H](C)[C@@](O)(O2)C(=O)C(=O)N2CCCC[C@H]2C(=O)O[C@H]([C@H](C)C[C@@H]2CC[C@H](n3cnnn3)[C@H](OC)C2)CC(=O)[C@H](C)/C=C(\C)[C@@H](O)[C@@H](OC)C(=O)[C@H](C)C[C@H](C)/C=C/C=C/C=C/1C [Example 1C, 42-(1-tetrazolyl)-rapamycin]
- local coronary arterial wall toxicity (medial necrosis or stent malapposition) ([4]; any dose group incl. approximately 27 μg/mm, any time interval): no local coronary arterial wall toxicity
- histologic % stenosis ([4]; one month, dose group 3 vs control): tendency towards decreased
- Intima area normalized to injury score ([4]; one month, dose groups 3 and 4 (10 and 27 μg/mm) vs control): significantly decreased
- absolute intima area [4, 8]: trends for decreases
- intima thickness [4, 8]: trends for decreases
- vessel wall toxicity ([4]; one month, even at the highest dose (27 μg/mm)): no evidence of vessel wall toxicity
- neointima formation in stented coronary arteries ([4]; one-month group, locally eluted): significant inhibitory effect
- endothelial recovery over the stent struts ([4]; three days after implant, regardless of dosage): did not appear retarded
- neointima cross-sectional area and % area stenosis of the lumen ([4]; three-month period): weak trends for decreases
- histomorphometric parameters of stented coronary arterial dimension ([4]; three-month period, between the dose groups): no significant differences
- terminal elimination half-life (t1/2) compared to rapamycin [1]: substantially shorter
- % Cumulative Release of Drug ([5]; 15 min): 0.3%
- % Cumulative Release of Drug ([5]; 30 min): 1.1%
- % Cumulative Release of Drug ([5]; 45 min): 2.1%
- % Cumulative Release of Drug ([5]; 60 min): 3.2%
- % Cumulative Release of Drug ([5]; 120 min): 4.3%
- % Cumulative Release of Drug ([5]; 135 min): 5.9%
- % Cumulative Release of Drug ([5]; 150 min): 6.3%
- % Cumulative Release of Drug ([5]; 165 min): 6.8%
- % Cumulative Release of Drug ([5]; 180 min): 7.4%
- % Cumulative Release of Drug ([5]; 240 min): 10.8%
- % Cumulative Release of Drug ([5]; 390 min): 13.2%

SMILES: CO[C@H]1C[C@@H]2CC[C@@H](C)[C@@](O)(O2)C(=O)C(=O)N2CCCC[C@H]2C(=O)O[C@H]([C@H](C)C[C@@H]2CC[C@@H](O)[C@H](OC)C2)CC(=O)[C@H](C)/C=C(\C)[C@@H](O)[C@@H](OC)C(=O)[C@H](C)C[C@H](C)/C=C/C=C/C=C/1C [Rapamycin]
- IC50 [6]: 910 ± 360 pM
